Patent US7138361B2, “Herbicidal heterocycles” (E. I. du Pont de Nemours and Company, priority 2000, dated 2006)

Key:
Assay type in all cases: in vivo
[1] = tested on: Surinam grass (Brachiaria decumbens); assay: Test B postemergence; conditions: 13 to 15 days
Summary of the method: (§1)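 Visual injury scores, 0 = no effect to 100 = complete control, assigned against controls after 13 to 15 days in the greenhouse. Compounds formulated in non-phytotoxic solvent plus surfactant and applied to soil after planting (pre) or onto foliage of 1- to 4-leaf plants (post).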

[2] = tested on: barnyardgrass (Echinochloa crus-galli); assay: Test B postemergence; conditions: 13 to 15 days
Summary of the method: as §1

[3] = tested on: blackgrass (Alopecurus myosuroides); assay: Test B postemergence; conditions: 13 to 15 days
Summary of the method: as §1

[4] = tested on: cocklebur (Xanthium strumarium); assay: Test B postemergence; conditions: 13 to 15 days
Summary of the method: as §1

[5] = tested on: corn (Zea mays); assay: Test B postemergence; conditions: 13 to 15 days
Summary of the method: as §1

[6] = tested on: crabgrass (Digitaria sanguinalis); assay: Test B postemergence; conditions: 13 to 15 days
Summary of the method: as §1

[7] = tested on: giant foxtail (Setaria faberii); assay: Test B postemergence; conditions: 13 to 15 days
Summary of the method: as §1

[8] = tested on: lambsquarters (Chenopodium album); assay: Test B postemergence; conditions: 13 to 15 days
Summary of the method: as §1

[9] = tested on: morning glory (Ipomoea hederacea); assay: Test B postemergence; conditions: 13 to 15 days
Summary of the method: as §1

[10] = tested on: pigweed (Amaranthus retroflexus); assay: Test B postemergence; conditions: 13 to 15 days
Summary of the method: as §1

[11] = tested on: velvetleaf (Abutilon theophrasti); assay: Test B postemergence; conditions: 13 to 15 days
Summary of the method: as §1

[12] = tested on: wheat (Triticum aestivum); assay: Test B postemergence; conditions: 13 to 15 days
Summary of the method: as §1

[13] = tested on: wild oat (Avena fatua); assay: Test B postemergence; conditions: 13 to 15 days
Summary of the method: as §1

[14] = tested on: Surinam grass (Brachiaria decumbens); assay: Test B preemergence; conditions: scale 0 to 100, 0 no effect, 100 complete control
Summary of the method: as §1

[15] = tested on: barnyardgrass (Echinochloa crus-galli); assay: Test B preemergence; conditions: scale 0 to 100, 0 no effect, 100 complete control
Summary of the method: as §1

[16] = tested on: cocklebur (Xanthium strumarium); assay: Test B preemergence; conditions: scale 0 to 100, 0 no effect, 100 complete control
Summary of the method: as §1

[17] = tested on: corn (Zea mays); assay: Test B preemergence; conditions: scale 0 to 100, 0 no effect, 100 complete control
Summary of the method: as §1

[18] = tested on: crabgrass (Digitaria sanguinalis); assay: Test B preemergence; conditions: scale 0 to 100, 0 no effect, 100 complete control
Summary of the method: as §1

[19] = tested on: giant foxtail (Setaria faberii); assay: Test B preemergence; conditions: scale 0 to 100, 0 no effect, 100 complete control
Summary of the method: as §1

[20] = tested on: lambsquarters (Chenopodium album); assay: Test B preemergence; conditions: scale 0 to 100, 0 no effect, 100 complete control
Summary of the method: as §1

[21] = tested on: morning glory (Ipomoea hederacea); assay: Test B preemergence; conditions: Preemergence, Rate 500 g/ha; scale 0 to 100, 0 no effect, 100 complete control
Summary of the method: as §1

[22] = tested on: pigweed (Amaranthus retroflexus); assay: Test B preemergence; conditions: Preemergence, Rate 500 g/ha; scale 0 to 100, 0 no effect, 100 complete control
Summary of the method: as §1

[23] = tested on: rice (Oryza saliva); assay: Test B preemergence; conditions: Preemergence, Rate 500 g/ha; scale 0 to 100, 0 no effect, 100 complete control
Summary of the method: as §1

[24] = tested on: velvetleaf (Abutilon theophrasti); assay: Test B preemergence; conditions: Preemergence, Rate 500 g/ha; scale 0 to 100, 0 no effect, 100 complete control
Summary of the method: as §1

[25] = tested on: Nightshade; assay: Test C preemergence; conditions: Rate 250 g/ha, visual evaluation after 12 to 14 days
[26] = tested on: Sunflower; assay: Test C preemergence; conditions: Rate 125 g/ha, scale 0 to 100, 0 no effect, 100 complete control
[27] = Rate 125 g/ha, scale 0 (no effect) to 100 (complete control)
[28] = Rate 500 g/ha, scale 0 to 100, 0 is no effect, 100 is complete control

## O=C1C(n2ccc(C3CC3)n2)OCN1c1cccc(C(F)(F)F)c1 (centres unmarked) [Compound 28]
[1]; [27]
  Plant response rating, Surinam grass: 0
[1]; [28]
  Plant response rating, Surinam grass: 0
[2]; [27]
  Plant response rating, Barnyardgrass: 0
[2]; [28]
  Plant response rating, Barnyardgrass: 60
[3]; [27]
  Plant response rating, Blackgrass: 0
[3]; [28]
  Plant response rating, Blackgrass: 0
[4]; [27]
  Plant response rating, Cocklebur: 0
[4]; [28]
  Plant response rating, Cocklebur: 0
[5]; [27]
  Plant response rating, Corn: 0
[5]; [28]
  Plant response rating, Corn: 0
[6]; [27]
  Plant response rating, Crabgrass: 20
[6]; [28]
  Plant response rating, Crabgrass: 30
[7]; [27]
  Plant response rating, Foxtail, Giant: 0
[7]; [28]
  Plant response rating, Foxtail, Giant: 30
[8]; [27]
  Plant response rating, Lambsquarters: 60
[8]; [28]
  Plant response rating, Lambsquarters: 70
[9]; [27]
  Plant response rating, Morningglory: 0
[9]; [28]
  Plant response rating, Morningglory: 0
[10]; [27]
  Plant response rating, Pigweed: 30
[10]; [28]
  Plant response rating, Pigweed: 30
[11]; [27]
  Plant response rating, Velvetleaf: 0
[11]; [28]
  Plant response rating, Velvetleaf: 0
[12]; [27]
  Plant response rating, Wheat: 0
[12]; [28]
  Plant response rating, Wheat: 0
[13]; [27]
  Plant response rating, Wild Oat: 0
[13]; [28]
  Plant response rating, Wild Oat: 0
[14]; Preemergence, Rate 500 g/ha
  Plant response rating, Surinam grass: 70
[14]; preemergence, Rate 125 g/ha
  Plant response rating, Surinam grass: 0
[15]; Preemergence, Rate 500 g/ha
  Plant response rating, Barnyardgrass: 100
[15]; preemergence, Rate 125 g/ha
  Plant response rating, Barnyardgrass: 50
[16]; Preemergence, Rate 500 g/ha
  Plant response rating, Cocklebur: 100
[16]; preemergence, Rate 125 g/ha
  Plant response rating, Cocklebur: 0
[17]; Preemergence, Rate 500 g/ha
  Plant response rating, Corn: 0
[17]; preemergence, Rate 125 g/ha
  Plant response rating, Corn: 0
[18]; Preemergence, Rate 500 g/ha
  Plant response rating, Crabgrass: 100
[18]; preemergence, Rate 125 g/ha
  Plant response rating, Crabgrass: 20
[19]; Preemergence, Rate 500 g/ha
  Plant response rating, Foxtail, Giant: 100
[19]; preemergence, Rate 125 g/ha
  Plant response rating, Foxtail, Giant: 20
[20]; Preemergence, Rate 500 g/ha
  Plant response rating, Lambsquarters: 100
[20]; preemergence, Rate 125 g/ha
  Plant response rating, Lambsquarters: 100
[21]
  Plant response rating, Morningglory: 0
[22]
  Plant response rating, Pigweed: 100
[23]
  Plant response rating, Rice: 40
[24]
  Plant response rating, Velvetleaf: 0
[25]
  Plant response rating (0 to 100), Nightshade: 90
[26]
  Plant response rating, Sunflower: 40

## CC(C)(C)c1ccn(C2SCN(c3cccc(OC(F)(F)F)c3)C2=O)n1 (centres unmarked) [Compound 30]
[1]; [27]
  Plant response rating, Surinam grass: 0
[1]; [28]
  Plant response rating, Surinam grass: 20
[2]; [27]
  Plant response rating, Barnyardgrass: 100
[2]; [28]
  Plant response rating, Barnyardgrass: 100
[3]; [27]
  Plant response rating, Blackgrass: 0
[3]; [28]
  Plant response rating, Blackgrass: 20
[4]; [27]
  Plant response rating, Cocklebur: 70
[4]; [28]
  Plant response rating, Cocklebur: 70
[5]; [27]
  Plant response rating, Corn: 0
[5]; [28]
  Plant response rating, Corn: 0
[6]; [27]
  Plant response rating, Crabgrass: 50
[6]; [28]
  Plant response rating, Crabgrass: 100
[7]; [27]
  Plant response rating, Foxtail, Giant: 10
[7]; [28]
  Plant response rating, Foxtail, Giant: 80
[8]; [27]
  Plant response rating, Lambsquarters: 90
[8]; [28]
  Plant response rating, Lambsquarters: 90
[9]; [27]
  Plant response rating, Morningglory: 40
[9]; [28]
  Plant response rating, Morningglory: 90
[10]; [27]
  Plant response rating, Pigweed: 100
[10]; [28]
  Plant response rating, Pigweed: 100
[11]; [27]
  Plant response rating, Velvetleaf: 0
[11]; [28]
  Plant response rating, Velvetleaf: 0
[12]; [27]
  Plant response rating, Wheat: 0
[12]; [28]
  Plant response rating, Wheat: 0
[13]; [27]
  Plant response rating, Wild Oat: 0
[13]; [28]
  Plant response rating, Wild Oat: 0
[14]; Preemergence, Rate 500 g/ha
  Plant response rating, Surinam grass: 60
[14]; preemergence, Rate 125 g/ha
  Plant response rating, Surinam grass: 40
[15]; Preemergence, Rate 500 g/ha
  Plant response rating, Barnyardgrass: 100
[15]; preemergence, Rate 125 g/ha
  Plant response rating, Barnyardgrass: 40
[16]; Preemergence, Rate 500 g/ha
  Plant response rating, Cocklebur: 90
[16]; preemergence, Rate 125 g/ha
  Plant response rating, Cocklebur: 0
[17]; Preemergence, Rate 500 g/ha
  Plant response rating, Corn: 0
[17]; preemergence, Rate 125 g/ha
  Plant response rating, Corn: 0
[18]; Preemergence, Rate 500 g/ha
  Plant response rating, Crabgrass: 100
[18]; preemergence, Rate 125 g/ha
  Plant response rating, Crabgrass: 20
[19]; Preemergence, Rate 500 g/ha
  Plant response rating, Foxtail, Giant: 100
[19]; preemergence, Rate 125 g/ha
  Plant response rating, Foxtail, Giant: 70
[20]; Preemergence, Rate 500 g/ha
  Plant response rating, Lambsquarters: 100
[20]; preemergence, Rate 125 g/ha
  Plant response rating, Lambsquarters: 100
[21]
  Plant response rating, Morningglory: 90
[22]
  Plant response rating, Pigweed: 100
[23]
  Plant response rating, Rice: 0
[24]
  Plant response rating, Velvetleaf: 40
[25]
  Plant response rating (0 to 100), Nightshade: 100
[26]
  Plant response rating, Sunflower: 80
